Measured values taken from ChEMBL document CHEMBL2406961, “Inhibitors of ATR Kinase for Treatment of Cancer” (ACS Med Chem Lett, 2013).

Target: Serine/threonine-protein kinase ATR (Homo sapiens, UniProt Q13535)
Experiment: Inhibition of ATR (unknown origin)

Sequence of Serine/threonine-protein kinase ATR (Q13535 whole entry): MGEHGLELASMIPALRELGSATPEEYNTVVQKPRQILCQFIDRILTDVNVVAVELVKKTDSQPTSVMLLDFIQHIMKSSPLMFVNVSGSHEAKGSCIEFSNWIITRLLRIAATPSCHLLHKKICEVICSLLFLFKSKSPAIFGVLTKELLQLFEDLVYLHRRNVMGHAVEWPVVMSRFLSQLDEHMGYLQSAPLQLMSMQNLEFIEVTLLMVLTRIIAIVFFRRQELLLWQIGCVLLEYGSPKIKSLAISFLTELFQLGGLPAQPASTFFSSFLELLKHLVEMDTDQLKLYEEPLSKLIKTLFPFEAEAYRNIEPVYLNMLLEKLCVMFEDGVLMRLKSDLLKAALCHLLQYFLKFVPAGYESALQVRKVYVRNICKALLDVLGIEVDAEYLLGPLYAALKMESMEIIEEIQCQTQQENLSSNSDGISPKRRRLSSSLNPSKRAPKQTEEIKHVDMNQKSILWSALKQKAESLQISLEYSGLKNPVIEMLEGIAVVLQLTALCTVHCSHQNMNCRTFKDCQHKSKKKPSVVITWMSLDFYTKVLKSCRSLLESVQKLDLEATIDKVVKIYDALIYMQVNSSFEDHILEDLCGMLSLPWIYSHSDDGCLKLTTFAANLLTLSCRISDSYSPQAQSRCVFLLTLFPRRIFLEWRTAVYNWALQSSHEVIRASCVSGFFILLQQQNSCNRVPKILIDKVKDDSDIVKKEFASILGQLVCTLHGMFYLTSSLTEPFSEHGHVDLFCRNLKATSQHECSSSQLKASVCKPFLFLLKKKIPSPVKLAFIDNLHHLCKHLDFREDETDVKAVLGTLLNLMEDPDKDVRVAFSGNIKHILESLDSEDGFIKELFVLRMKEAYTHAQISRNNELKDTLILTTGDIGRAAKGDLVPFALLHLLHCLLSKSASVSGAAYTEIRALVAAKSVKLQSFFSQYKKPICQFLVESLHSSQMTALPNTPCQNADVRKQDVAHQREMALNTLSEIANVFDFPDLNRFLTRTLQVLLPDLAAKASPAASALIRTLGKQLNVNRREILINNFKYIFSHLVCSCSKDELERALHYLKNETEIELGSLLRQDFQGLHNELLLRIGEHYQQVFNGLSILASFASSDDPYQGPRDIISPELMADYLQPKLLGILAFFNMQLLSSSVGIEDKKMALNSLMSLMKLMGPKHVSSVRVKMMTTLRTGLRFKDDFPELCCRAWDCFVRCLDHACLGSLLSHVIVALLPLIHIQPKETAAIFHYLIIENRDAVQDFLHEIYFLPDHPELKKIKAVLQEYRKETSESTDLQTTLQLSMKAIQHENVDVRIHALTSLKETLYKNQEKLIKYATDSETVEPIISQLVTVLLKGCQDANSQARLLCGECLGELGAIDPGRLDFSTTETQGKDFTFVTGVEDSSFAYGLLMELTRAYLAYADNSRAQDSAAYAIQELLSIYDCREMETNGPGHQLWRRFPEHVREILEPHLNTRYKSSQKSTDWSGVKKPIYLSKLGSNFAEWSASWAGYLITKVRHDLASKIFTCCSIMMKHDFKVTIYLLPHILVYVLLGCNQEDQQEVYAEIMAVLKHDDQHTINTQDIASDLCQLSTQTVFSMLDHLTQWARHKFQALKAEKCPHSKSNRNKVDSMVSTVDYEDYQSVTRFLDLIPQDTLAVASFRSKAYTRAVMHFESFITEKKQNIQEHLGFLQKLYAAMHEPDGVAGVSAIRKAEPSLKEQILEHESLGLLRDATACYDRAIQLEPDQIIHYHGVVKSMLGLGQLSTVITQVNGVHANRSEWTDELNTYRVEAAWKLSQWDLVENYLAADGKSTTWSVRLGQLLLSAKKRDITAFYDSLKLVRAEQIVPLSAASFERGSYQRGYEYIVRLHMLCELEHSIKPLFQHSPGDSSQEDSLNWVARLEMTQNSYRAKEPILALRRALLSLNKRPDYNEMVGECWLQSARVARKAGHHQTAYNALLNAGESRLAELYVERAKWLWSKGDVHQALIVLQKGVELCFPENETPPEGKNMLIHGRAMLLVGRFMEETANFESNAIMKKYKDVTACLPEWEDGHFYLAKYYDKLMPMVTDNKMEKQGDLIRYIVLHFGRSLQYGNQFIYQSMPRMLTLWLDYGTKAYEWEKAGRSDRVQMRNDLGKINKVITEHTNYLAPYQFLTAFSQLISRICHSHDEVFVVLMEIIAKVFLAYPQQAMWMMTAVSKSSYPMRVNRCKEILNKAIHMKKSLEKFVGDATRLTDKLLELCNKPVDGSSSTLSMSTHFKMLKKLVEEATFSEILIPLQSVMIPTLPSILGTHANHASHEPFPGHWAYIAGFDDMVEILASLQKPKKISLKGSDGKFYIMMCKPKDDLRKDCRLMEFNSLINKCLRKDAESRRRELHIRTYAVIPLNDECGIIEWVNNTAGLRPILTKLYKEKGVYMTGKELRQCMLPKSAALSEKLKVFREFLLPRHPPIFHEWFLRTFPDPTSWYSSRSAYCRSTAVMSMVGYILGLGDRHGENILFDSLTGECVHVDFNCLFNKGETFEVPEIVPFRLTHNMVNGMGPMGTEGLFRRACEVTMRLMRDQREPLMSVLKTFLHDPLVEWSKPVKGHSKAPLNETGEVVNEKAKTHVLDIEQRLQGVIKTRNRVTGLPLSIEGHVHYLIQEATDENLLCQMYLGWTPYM

Row | Ki | SMILES
1 | 90 nM | CC(C)S(=O)(=O)c1ccc(-c2cnc(N)c(C3CC(c4ccccc4)=NO3)n2)cc1 (configuration not stated)
2 | 16 nM | CNCc1ccc(C2=NOC(c3nc(-c4ccc(S(=O)(=O)C(C)C)cc4)cnc3N)C2)cc1 (configuration not stated)
